From patent publication US6355799B1, “Substituted benzene compounds, process for their preparation, and herbicidal and defoliant compositions containing them” (ISK Americas Incorporated, priority 1997, dated 2002)

Experiments:
Format in all cases: in vivo
[1] = test system: sicklepod (Cassia obtusifolia, CASOB); test: Post-emerge test, greenhouse herbicide activity screening; conditions: post-emerge, 14 days after application, rating scale 0-100
In short: (§1)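 Compounds in acetone were track-sprayed at 15–1000 g ai/ha: pre-emergence onto soil sown the previous day, then top-watered to incorporate and later bottom-watered; post-emergence onto 2–3 leaf plants with 0.25% v/v surfactant, bottom-watered only. Ratings on a 0–100 phytotoxicity scale were taken at day 14.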

[2] = test system: velvetleaf (Abutilon theophrasti, ABUTH); test: as above; conditions: post-emerge, 14 days after application, rating scale 0-100
In short: as §1

[3] = test system: green foxtail (Setaria viridis, SETVI); test: as above; conditions: post-emerge, 14 days after application, rating scale 0-100
In short: as §1

[4] = test system: johnsongrass (Sorghum halepense, SORHA); test: as above; conditions: post-emerge, 14 days after application, rating scale 0-100
In short: as §1

[5] = test system: ivyleaf morningglory (Ipomoea hederacea, IPOHE); test: as above; conditions: post-emerge, 14 days after application, rating scale 0-100
In short: as §1

[6] = test system: large crabgrass (Digitaria sanguinalis, DIGSA); test: as above; conditions: post-emerge, 14 days after application, rating scale 0-100
In short: as §1

[7] = test system: barnyardgrass (Echinochloa crus-galli, ECHCG); test: as above; conditions: post-emerge, 14 days after application, rating scale 0-100
In short: as §1

[8] = test system: lambsquarters (Chenopodium album, CHEAL); test: as above; conditions: post-emerge, 14 days after application, rating scale 0-100
In short: as §1

[9] = test system: redroot pigweed (Amaranthus retroflexus, AMARE); test: as above; conditions: post-emerge, 14 days after application, rating scale 0-100
In short: as §1

[10] = test system: redroot pigweed (Amaranthus retroflexus, AMARE); test: Pre-emerge test, greenhouse herbicide activity screening; conditions: rated 14 days after application, 0 = no damage, 100 = complete death
In short: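 Herbicidal damage is scored 0 (none) to 100 (complete plant death) two weeks after a simulated field spray. Rates span 15–1000 g ai/ha, delivered in acetone at 187 l/ha. For post-emergence treatments, plants have 2–3 leaves and the spray carries 0.25% v/v non-ionic surfactant.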

[11] = test system: field corn (Zea mays L., var. Dekalb 535, CORN); test: Pre-emerge test, crop safety; conditions: rated 14 days after application, 0 = no damage, 100 = complete death
In short: (§2)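 Plants grown in 10 cm pots of sandy loam mix received acetone-dissolved compounds through a moving flat-fan nozzle. Doses ranged from 15 to 1000 g ai/ha. Pre-emerge pots were seeded one day earlier, post-emerge pots 8–21 days earlier. Fourteen days on, each pot was graded 0–100 for damage.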

[12] = test system: upland rice (Oryza sp., var. Tebonnet, RICE); test: Pre-emerge test, crop safety; conditions: rated 14 days after application, 0 = no damage, 100 = complete death
In short: as §2

[13] = test system: sicklepod (Cassia obtusifolia, CASOB); test: Pre-emerge test, greenhouse herbicide activity screening; conditions: rated 14 days after application, 0 = no damage, 100 = complete death
In short: (§3)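 Compounds in acetone were track-sprayed at 187 l/ha, 15–1000 g ai/ha, onto sandy loam pots. Pre-emerge seeds were sown one day before spraying, with surface watering afterwards. Post-emerge plants were at the 2–3 leaf stage and sprayed with 0.25% v/v non-ionic surfactant. Injury was rated 0–100 at 14 days.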

[14] = test system: velvetleaf (Abutilon theophrasti, ABUTH); test: as above; conditions: rated 14 days after application, 0 = no damage, 100 = complete death
In short: as §3

[15] = test system: green foxtail (Setaria viridis, SETVI); test: as above; conditions: rated 14 days after application, 0 = no damage, 100 = complete death
In short: as §3

[16] = test system: johnsongrass (Sorghum halepense, SORHA); test: as above; conditions: rated 14 days after application, 0 = no damage, 100 = complete death
In short: as §3

[17] = test system: ivyleaf morningglory (Ipomoea hederacea, IPOHE); test: as above; conditions: rated 14 days after application, 0 = no damage, 100 = complete death
In short: as §3

[18] = test system: large crabgrass (Digitaria sanguinalis, DIGSA); test: as above; conditions: rated 14 days after application, 0 = no damage, 100 = complete death
In short: as §3

[19] = test system: barnyardgrass (Echinochloa crus-galli, ECHCG); test: as above; conditions: rated 14 days after application, 0 = no damage, 100 = complete death
In short: as §3

[20] = test system: lambsquarters (Chenopodium album, CHEAL); test: as above; conditions: rated 14 days after application, 0 = no damage, 100 = complete death
In short: as §3

[21] = test system: field corn (Zea mays L., var. Dekalb 535, CORN); test: Post-emerge test, crop safety; conditions: post-emerge, 14 days after application, rating scale 0-100
In short: as §3

[22] = test system: upland rice (Oryza sp., var. Tebonnet, RICE); test: Post-emerge test, crop safety; conditions: post-emerge, 14 days after application, rating scale 0-100
In short: as §3

COc1c(Cl)cc(F)c(-n2c(=O)cc(C(F)(F)F)n(C)c2=O)c1NC(=O)COCc1ccccc1 [2-89]
phytotoxicity rating CASOB ([1]; 63 g ai/ha): 50 | phytotoxicity rating CASOB ([1]; 250 g ai/ha): 60 | phytotoxicity rating ABUTH ([2]; 63 g ai/ha): 100 | phytotoxicity rating ABUTH ([2]; 250 g ai/ha): 100 | phytotoxicity rating SETVI ([3]; 63 g ai/ha): 20 | phytotoxicity rating SETVI ([3]; 250 g ai/ha): 20 | phytotoxicity rating SORHA ([4]; 63 g ai/ha): 0 | phytotoxicity rating SORHA ([4]; 250 g ai/ha): 10 | phytotoxicity rating IPOHE ([5]; 63 g ai/ha): 90 | phytotoxicity rating IPOHE ([5]; 250 g ai/ha): 100 | phytotoxicity rating DIGSA ([6]; 63 g ai/ha): 0 | phytotoxicity rating DIGSA ([6]; 250 g ai/ha): 0 | phytotoxicity rating ECHCG ([7]; 63 g ai/ha): 0 | phytotoxicity rating ECHCG ([7]; 250 g ai/ha): 10 | phytotoxicity rating CHEAL ([8]; 63 g ai/ha): 60 | phytotoxicity rating CHEAL ([8]; 250 g ai/ha): 90 | phytotoxicity rating AMARE ([9]; 63 g ai/ha): 70 | phytotoxicity rating AMARE ([9]; 250 g ai/ha): 100 | Pre-emerge Herbicidal Activity, phytotoxicity rating (0-100), AMARE ([10]; 63 g ai/ha): 100 | Pre-emerge Herbicidal Activity, phytotoxicity rating (0-100), AMARE ([10]; 250 g ai/ha): 100 | Pre-emerge phytotoxicity rating (0-100), crop damage, CORN ([11]; 63 g ai/ha): 10 | Pre-emerge phytotoxicity rating (0-100), crop damage, CORN ([11]; 250 g ai/ha): 30 | Pre-emerge phytotoxicity rating (0-100), crop damage, RICE ([12]; 63 g ai/ha): 40 | Pre-emerge phytotoxicity rating (0-100), crop damage, RICE ([12]; 250 g ai/ha): 90 | Pre-emerge Herbicidal Activity, phytotoxicity rating (0-100), CASOB ([13]; 63 g ai/ha): 95 | Pre-emerge Herbicidal Activity, phytotoxicity rating (0-100), CASOB ([13]; 250 g ai/ha): 100 | Pre-emerge Herbicidal Activity, phytotoxicity rating (0-100), ABUTH ([14]; 63 g ai/ha): 100 | Pre-emerge Herbicidal Activity, phytotoxicity rating (0-100), ABUTH ([14]; 250 g ai/ha): 100 | Pre-emerge Herbicidal Activity, phytotoxicity rating (0-100), SETVI ([15]; 63 g ai/ha): 100 | Pre-emerge Herbicidal Activity, phytotoxicity rating (0-100), SETVI ([15]; 250 g ai/ha): 100 | Pre-emerge Herbicidal Activity, phytotoxicity rating (0-100), SORHA ([16]; 63 g ai/ha): 60 | Pre-emerge Herbicidal Activity, phytotoxicity rating (0-100), SORHA ([16]; 250 g ai/ha): 90 | Pre-emerge Herbicidal Activity, phytotoxicity rating (0-100), IPOHE ([17]; 63 g ai/ha): 95 | Pre-emerge Herbicidal Activity, phytotoxicity rating (0-100), IPOHE ([17]; 250 g ai/ha): 100 | Pre-emerge Herbicidal Activity, phytotoxicity rating (0-100), DIGSA ([18]; 63 g ai/ha): 99 | Pre-emerge Herbicidal Activity, phytotoxicity rating (0-100), DIGSA ([18]; 250 g ai/ha): 100 | Pre-emerge Herbicidal Activity, phytotoxicity rating (0-100), ECHCG ([19]; 63 g ai/ha): 50 | Pre-emerge Herbicidal Activity, phytotoxicity rating (0-100), ECHCG ([19]; 250 g ai/ha): 90 | Pre-emerge Herbicidal Activity, phytotoxicity rating (0-100), CHEAL ([20]; 63 g ai/ha): 100 | Pre-emerge Herbicidal Activity, phytotoxicity rating (0-100), CHEAL ([20]; 250 g ai/ha): 100 | phytotoxicity rating CORN ([21]; 63 g ai/ha): 0 | phytotoxicity rating CORN ([21]; 250 g ai/ha): 0 | phytotoxicity rating RICE ([22]; 63 g ai/ha): 60 | phytotoxicity rating RICE ([22]; 250 g ai/ha): 70
